Source: article PMC2772130 (Chemical research in toxicology, 2008)
Read-outs that look alike come from different tables or passages of the source.

How the values were obtained:
[1] = molecular target: T1, P450 1B1 (Homo sapiens, UniProt Q16678); test: Inhibition of P450 1B1-dependent 7-ethoxyresorufin O-deethylation; details: for IC50: means and SE; for course of EROD Km values during the incubation: direct inhibitors
T1 sequence (Q16678 1-543): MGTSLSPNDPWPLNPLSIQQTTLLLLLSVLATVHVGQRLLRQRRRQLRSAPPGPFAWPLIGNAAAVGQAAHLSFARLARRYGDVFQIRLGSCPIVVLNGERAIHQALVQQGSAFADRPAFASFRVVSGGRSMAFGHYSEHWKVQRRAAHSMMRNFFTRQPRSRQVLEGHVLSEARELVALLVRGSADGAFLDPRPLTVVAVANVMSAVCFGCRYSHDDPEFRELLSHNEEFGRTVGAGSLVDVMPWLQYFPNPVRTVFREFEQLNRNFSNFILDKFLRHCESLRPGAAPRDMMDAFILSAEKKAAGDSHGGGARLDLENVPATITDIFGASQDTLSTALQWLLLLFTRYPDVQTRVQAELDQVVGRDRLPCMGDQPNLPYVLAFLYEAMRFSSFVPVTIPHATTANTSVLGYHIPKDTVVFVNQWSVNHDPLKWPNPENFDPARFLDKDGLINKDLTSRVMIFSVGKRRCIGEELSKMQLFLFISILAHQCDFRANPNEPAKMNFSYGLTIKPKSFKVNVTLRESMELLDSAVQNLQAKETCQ

[2] = molecular target: T2, P450 1A2 (Homo sapiens, UniProt P05177); test: Quenching of P450 fluorescence with inhibitors, P450 1A2; type: binding
T2 sequence (P05177 1-516): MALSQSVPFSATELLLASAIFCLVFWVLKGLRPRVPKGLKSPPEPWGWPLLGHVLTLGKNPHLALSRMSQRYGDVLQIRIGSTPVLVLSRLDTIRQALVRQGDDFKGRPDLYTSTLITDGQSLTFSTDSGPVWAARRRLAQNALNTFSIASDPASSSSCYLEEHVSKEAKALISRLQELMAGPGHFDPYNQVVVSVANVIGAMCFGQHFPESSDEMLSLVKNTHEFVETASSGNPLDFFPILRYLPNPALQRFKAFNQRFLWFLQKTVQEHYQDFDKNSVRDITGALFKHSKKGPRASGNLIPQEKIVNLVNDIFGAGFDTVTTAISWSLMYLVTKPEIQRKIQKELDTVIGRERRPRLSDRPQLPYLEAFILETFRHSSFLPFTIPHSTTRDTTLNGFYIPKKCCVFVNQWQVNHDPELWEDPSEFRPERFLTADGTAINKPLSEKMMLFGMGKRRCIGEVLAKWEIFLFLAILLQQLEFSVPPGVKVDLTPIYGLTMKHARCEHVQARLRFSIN

[3] = molecular target: T3, P450 1A1 (Homo sapiens, UniProt P04798); test: Quenching of P450 fluorescence with inhibitors, P450 1A1; type: binding
T3 sequence (P04798 1-512): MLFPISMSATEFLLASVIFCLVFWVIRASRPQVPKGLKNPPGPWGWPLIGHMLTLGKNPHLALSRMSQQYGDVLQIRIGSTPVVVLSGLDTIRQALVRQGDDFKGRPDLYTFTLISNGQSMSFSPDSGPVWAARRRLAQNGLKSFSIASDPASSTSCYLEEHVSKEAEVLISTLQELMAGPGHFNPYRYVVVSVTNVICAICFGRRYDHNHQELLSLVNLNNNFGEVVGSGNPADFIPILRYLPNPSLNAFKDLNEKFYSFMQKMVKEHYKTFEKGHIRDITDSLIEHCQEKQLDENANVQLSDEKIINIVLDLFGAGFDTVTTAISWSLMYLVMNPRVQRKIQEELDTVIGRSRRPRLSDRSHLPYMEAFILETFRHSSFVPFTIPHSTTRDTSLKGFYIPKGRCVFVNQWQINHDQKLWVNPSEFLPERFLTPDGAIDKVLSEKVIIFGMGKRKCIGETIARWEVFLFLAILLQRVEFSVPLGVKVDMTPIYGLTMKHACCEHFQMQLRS

[4] = molecular target: T1, P450 1B1; test: Spectral binding titrations with purified P450 1B1; details: for ΔAmax (ΔA~416-A~383) / wavelengths (peak/trough): 1 μM P450 1B1; for ΔAmax (ΔA~416-A~383): means ± S.E.; for wavelengths (peak/trough): pH 7.4
[5] = molecular target: T1, P450 1B1; test: Quenching of P450 1B1; type: binding; details: extrapolated % quenching; 1.0 μM P450 1B1
[6] = molecular target: T1, P450 1B1; test: Quenching of PAH
[7] = molecular target: T1, P450 1B1
[8] = molecular target: T3, P450 1A1; test: Inhibition of P450 1A1-dependent EROD activity; type: biochemical; details: for fold increase in EROD Km of P450 1A1: 1PP 66 nM, 3PPh 333 nM
[9] = molecular target: T2, P450 1A2; test: Inhibition of P450 1A2-dependent EROD activity; type: biochemical; details: 37 °C
[10] = inhibition of EROD activity IC50, 15 s of incubation time (direct and direct/restore inhibitors)

Row | Compound | IC50 [1, 10] | Kd [4] | ΔAmax (ΔA~416-A~383) [4] | wavelengths (peak/trough) [4] | PAH binding to P450 1B1 Bmax [5] | Kd [6] | ΔAmax / Ks [7] | course of EROD Km values during the incubation [1] | further results
1 | C=Cc1ccc2ccc3cccc4ccc1c2c34 [1VP, 1-vinylpyrene] | 88 ± 10 nM | 4.3 ± 0.5 µM | 0.092 ± 0.006 | 416/383 | 65 ± 2% | 1.9 to 18 nM | 0.021 |  | Kd [2]: ~10 µM; Kd [3]: ~10 µM
2 | C#Cc1ccc2ccccc2c1 [2EN, 2-ethynylnaphthalene] | 190000 ± 16000 nM | 15 ± 8 µM | 0.049 ± 0.038 | 415/383 |  |  |  | increased throughout the incubation period | ΔAmax / Ks [4]: 0.003
3 | C#Cc1cc2ccc3cccc4ccc(c1)c2c34 [2EP, 2-ethynylpyrene] | 110 ± 20 nM | 3.4 ± 0.5 µM | 0.071 ± 0.005 | 416/387 | 69 ± 3% | 1.9 to 18 nM | 0.021 | increased throughout the incubation period | 
4 | C#Cc1ccc2c(ccc3ccccc32)c1 [2EPh, 2-ethynylphenanthrene] | 130 ± 21 nM | 4.2 ± 1.3 µM | 0.080 ± 0.013 | 414/383 | 62 ± 4% | 1.9 to 18 nM | 0.020 | increased throughout the incubation period | 
5 | CC#Cc1ccc2c(ccc3ccccc32)c1 [2PPh, 2-(1-propynyl)phenanthrene] | 100 ± 12 nM | 2.2 ± 0.1 µM | 0.067 ± 0.001 | 415/383 | 77 ± 5% | 1.9 to 18 nM | 0.030 |  | 
6 | C#Cc1ccc2ccc3ccccc3c2c1 [3EPh, 3-ethynylphenanthrene] | 110 ± 16 nM | 3 ± 0.4 µM | 0.071 ± 0.004 | 414/383 | 108 ± 22% |  | 0.024 |  | type of spectral change with P450 1B1 ([4]; difference spectra): reverse type I
7 | Cc1ccc2cc3c(ccc4ccccc43)c3c2c1CC3 [3MC, 3-methylcholanthrene] | 14 ± 2 nM |  |  |  | 105 ± 6% |  |  |  | interaction with P450 1B1 (quenching of inhibitor fluorescence) ([6]; inhibitors at 10 nM): not found
8 | CC#Cc1ccc2ccc3ccccc3c2c1 [3PPh, 3-(1-propynyl)phenanthrene] | 40 ± 3 nM | 3.1 ± 0.4 µM | 0.060 ± 0.004 | 415/383 | 73 ± 5% |  | 0.019 |  | fold increase in EROD Km of P450 1A1 ([8]; at 360 s): 25 fold; fold increase in EROD Km of P450 1A1 ([8]; initial incubation time): ~ 8 fold; mechanism of inhibition of P450 1A1 EROD activity ([8]; 37 °C, 30 min): mechanism-based inhibitors; EROD kcat of P450 1B1 relative to controls ([1]; 1PP 66 nM, 3PPh 33 nM, after 6 min of incubation): 56%; fold increase in EROD Km of P450 1B1 ([1]; 1PP 66 nM, 3PPh 33 nM, at 15 s): 2.3 fold; EROD Km of P450 1B1 relative to control value ([1]; 3PPh 33 nM, 6 min of incubation): one-third; EROD kcat of P450 1B1 relative to control, first decrease ([1]; initial stage of incubation): ~ one-fifth; mechanism of inhibition of P450 1A2 EROD activity [9]: mechanism-based manner
9 | C#Cc1cc2cccc3ccc4cccc1c4c32 [4EP, 4-ethynylpyrene] | 250 ± 20 nM | 4 ± 0.9 µM | 0.052 ± 0.006 | 416/383 | 67 ± 3% | 1.9 to 18 nM | 0.013 |  | 
10 | C#Cc1ccc(-c2ccccc2)cc1 [4Ebi, 4-ethynylbiphenyl] | 3300 ± 500 nM | 7.6 ± 1.2 µM | 0.023 ± 0.002 | 416/383 |  |  |  | increased throughout the incubation period | ΔAmax / Ks [4]: 0.003
11 | CC#Cc1ccc(-c2ccccc2)cc1 [4Pbi, 4-(1-propynyl)biphenyl] |  | 12 ± 5 µM | 0.074 ± 0.022 | 415/386 |  |  |  |  | IC50 ([1]; inhibition of EROD activity IC50, 6 min of incubation time (mechanism-based inhibitor)): 17000 ± 2000 nM; ΔAmax / Ks [4]: 0.005
